Measured values as given in patent US20230233555A1 (AbbVie Inc., priority 2022, published 2023).
Entries after “also recorded” stand apart in the source; their conditions may differ.

Legend:
[1] = Model-estimated and predicted upadacitinib Cmax and AUCss in UC patients with severe renal impairment; parameters: species or system human; conditions: for Predicted Cmax in UC Patients with Severe Renal Impairment based on results from M13-551, Median: model-estimated value multiplied by 1.14; for Predicted AUCss in UC Patients with Severe Renal Impairment based on results from M13-551, Median: model-estimated value multiplied by 1.44
Protocol: Therefore, it is recommended that the induction dose is reduced in UC patients with severe renal impairment to 30 mg QD.
Therefore, it is recommended that the maintenance dose is reduced in UC patients with severe renal impairment to 15 mg QD.

[2] = system: CYP1A2, CYP2B6, CYP2C8, CYP2C9, CYP2C19, CYP2D6, CYP3A4; assay: In vitro CYP inhibition; type: in vitro ADME; conditions: clinically relevant concentrations
[3] = Drug interaction studies: effect of co-administered drugs on upadacitinib pharmacokinetics (incl. Study M13-401); type: in vivo, human
Text: The data from Study M13-401 are provided in Table 38 and Table 39, which show the expected increase in Cmax and AUCss, respectively, in patients with UC across all dose levels with co-administration of CYP3A4 inhibitors.

CYP3A4 = CYP3A4 (Homo sapiens, UniProt P08684); assay: In vitro metabolism / substrate assessment, CYP3A4; type: in vitro ADME
Chain of CYP3A4 (P08684 whole entry): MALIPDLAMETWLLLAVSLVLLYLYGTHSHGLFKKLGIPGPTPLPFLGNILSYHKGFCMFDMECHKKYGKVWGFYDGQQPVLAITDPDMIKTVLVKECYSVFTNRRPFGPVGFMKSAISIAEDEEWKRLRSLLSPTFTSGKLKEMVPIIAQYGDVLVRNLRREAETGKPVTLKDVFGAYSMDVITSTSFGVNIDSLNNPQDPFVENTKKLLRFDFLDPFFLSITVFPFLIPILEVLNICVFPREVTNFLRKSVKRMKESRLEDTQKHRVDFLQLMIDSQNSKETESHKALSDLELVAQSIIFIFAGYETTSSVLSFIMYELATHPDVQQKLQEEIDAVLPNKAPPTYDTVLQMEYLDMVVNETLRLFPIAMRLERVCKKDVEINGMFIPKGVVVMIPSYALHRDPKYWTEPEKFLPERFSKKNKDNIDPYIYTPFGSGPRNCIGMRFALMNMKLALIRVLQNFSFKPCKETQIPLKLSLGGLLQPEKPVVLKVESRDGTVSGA

P-gp, BCRP = assay: In vitro transporter substrate assessment, P-gp and BCRP; type: in vitro ADME
[4] = system: patients with rheumatoid arthritis; assay: Rheumatoid arthritis Phase 3 trials, integrated datasets (RA-I to RA-V)
Text: Exposure adjusted incidence rates were adjusted by trial for all the adverse events reported in this section.
Patients 18 years of age and older were eligible to participate. The presence of at least 6 tender and 6 swollen joints and evidence of systemic inflammation based on elevation of hsCRP was required at baseline.

QTc interval = assay: Cardiac electrophysiology (QTc); type: in vivo, human
[5] = system: IL-6 (JAK1/JAK2)-induced STAT3 and IL-7 (JAK1/JAK3)-induced STAT5 phosphorylation; assay: IL-6 induced STAT3 and IL-7 induced STAT5 phosphorylation in whole blood of healthy volunteers; type: in vivo, human; conditions: immediate release formulation
Protocol: The maximal inhibition was observed 1 hour after dosing which returned to near baseline by the end of dosing interval.

[6] = Plasma protein binding and blood to plasma partitioning; type: in vitro ADME; conditions: human, read-out: Bound to plasma proteins (converted)
[7] = human, in vivo
[8] = system: patients with moderately to severely active rheumatoid arthritis, naive to MTX; assay: Trial RA-I (NCT02706873); type: in vivo, human; conditions: RA-I through Week 24; 30 mg
Protocol: The primary endpoint was the proportion of patients who achieved an ACR50 response at Week 12. Key secondary endpoints included disease activity score (DAS28-CRP) ≤3.2 at Week 12, DAS28-CRP <2.6 at Week 24, change from baseline in HAQ-DI at Week 12, and change from baseline in van der Heijde-modified total Sharp Score (mTSS) at Week 24.
Inhibition of progression of structural joint damage was assessed using the modified Total Sharp Score (mTSS) and its components, the erosion score and joint space narrowing score, at Week 26 in Trial RA-IV and Week 24 in Trial RA-I. The proportion of patients with no radiographic progression (mTSS change from baseline […]) was also assessed.

Solubility in water = type: physicochemical; conditions: aqueous buffer, pH range of 2 to 9 at 37° C.
Text: The strength of upadacitinib is based on anhydrous upadacitinib. […]

[9] = Human radiolabeled [14C]-upadacitinib study (metabolism and excretion); type: in vivo
[10] = system: CYP1A2, 2B6, 2C8, 2C9, 2C18, 2C19, 2J2, FMO1, FMO3, OATP1B1, OATP1B3, OCT1; assay: In vitro substrate assessment, other enzymes and transporters; type: in vitro ADME
[11] = Population pharmacokinetic analyses; type: in vivo, human
Protocol: Renal clearance indicates some involvement of renal transporters in the excretion. Renal secretion is however not estimated to contribute to more than 25% of the elimination. […] As used herein, reference to “severe renal impairment” means a creatinine clearance of less than 30 mL/min.
The effect of different intrinsic factors has been evaluated in dedicated PK studies in renal and hepatic impairment and in Asian subjects, and by population pharmacokinetic analysis from the phase 2/3 studies. […] There are limited data in patients aged 75 years and older and there is no pharmacokinetic data in children and adolescents.

clinical = conditions: human, in vivo
male and female rats = assay: Fertility study in rats; type: in vivo, rat
rat bone marrow = assay: In vivo rat bone marrow micronucleus assay
[12] = e.g. ketoconazole, Study M13-401
[13] = ketoconazole 400 mg QD, upadacitinib IR formulation
[14] = rifampicin 600 mg QD for 8 days
[15] = 12-month exposure dataset (RA-I, II, III, V), 30 mg
[16] = MTX-controlled RA-I and RA-II, 12/14 weeks, 30 mg monotherapy
[17] = RA-III and RA-V placebo-controlled, 12 weeks, 30 mg

CC[C@@H]1CN(C(=O)NCC(F)(F)F)C[C@@H]1c1cnc2cnc3[nH]ccc3n12 [upadacitinib, (3S,4R)-3-Ethyl-4-(3H-imidazo[1,2-a]pyrrolo[2,3-e]pyrazin-8-yl)-N-(2,2,2-trifluoroethyl)pyrrolidine-1-carboxamide hydrate (2:1)]
Predicted Cmax in UC Patients with Severe Renal Impairment based on results from M13-551, Median ([1]; 7.5 mg treatment group): 23.0 ng/mL | Predicted AUCss in UC Patients with Severe Renal Impairment based on results from M13-551, Median ([1]; 7.5 mg treatment group): 232 ng·h/mL | Predicted Cmax in UC Patients with Severe Renal Impairment based on results from M13-551, Median ([1]; 15 mg treatment group): 47.1 ng/mL | Predicted AUCss in UC Patients with Severe Renal Impairment based on results from M13-551, Median ([1]; 15 mg treatment group): 492 ng·h/mL | Predicted Cmax in UC Patients with Severe Renal Impairment based on results from M13-551, Median ([1]; 30 mg treatment group): 89.5 ng/mL | Predicted AUCss in UC Patients with Severe Renal Impairment based on results from M13-551, Median ([1]; 30 mg treatment group): 940 ng·h/mL | Predicted Cmax in UC Patients with Severe Renal Impairment based on results from M13-551, Median ([1]; 45 mg treatment group): 138 ng/mL | Predicted AUCss in UC Patients with Severe Renal Impairment based on results from M13-551, Median ([1]; 45 mg treatment group): 1431 ng·h/mL | Inhibition (or induction) of CYP1A2, 2B6, 2C8, 2C9, 2C19, 2D6, 3A4 [2]: does not inhibit or induce; also recorded: no in vivo relevant inhibition | Upadacitinib exposure with methotrexate ([3]; co-administration with methotrexate): no effect | Upadacitinib plasma exposure with strong CYP2D6 inhibitors, OATP1B inhibitors, MTX, pH modifying medications or statins ([3]; concomitant administration): no effect | Upadacitinib AUC (AUCinf) increase with strong CYP3A4 inhibitor [3, 12]: 75% | Upadacitinib Cmax increase with strong CYP3A4 inhibitor [3, 12]: 70% | Upadacitinib half-life with ketoconazole ([3]; ketoconazole 400 mg QD): no effect on half-life | Upadacitinib AUC increase with ketoconazole [3, 13]: 1.8 fold | Upadacitinib Cmax increase with ketoconazole [3, 13]: 1.7 fold | Upadacitinib AUC decrease with rifampicin [3, 14]: 60% | Upadacitinib Cmax decrease with rifampicin [3, 14]: 50% | Substrate of / metabolised by CYP3A4 (CYP3A4): substrate; also recorded: mediated by mainly CYP3A4; also recorded: metabolized in vitro by CYP3A4 | Substrate of P-gp and BCRP (P-gp, BCRP): substrate | Opportunistic infections (excluding tuberculosis), number of patients [4, 15]: 15 patients | Opportunistic infections (excluding tuberculosis), rate [4, 15]: 1.4 per 100 patient-years | Active tuberculosis, number of patients ([4]; 12-month exposure dataset, 30 mg): 1 patient | Opportunistic infections (excluding tuberculosis), number of patients [4, 16]: 4 patients | Opportunistic infections (excluding tuberculosis), rate [4, 16]: 3.2 per 100 patient-years | Active tuberculosis cases ([4]; RA MTX-controlled period, 30 mg monotherapy): no active cases | Change in mean IgG and IgM levels from baseline ([4]; RA patients, controlled period): small decreases | Change in mean ALC from baseline ([4]; RA patients, up to Week 36): small, transient increase | Active tuberculosis cases ([4]; RA placebo-controlled period, 30 mg): no active cases | Opportunistic infections (excluding tuberculosis), number of patients [4, 17]: 6 patients | Opportunistic infections (excluding tuberculosis), rate [4, 17]: 7.1 per 100 patient-years | Effect on QTc interval (QTc interval; 2.5 times the mean exposure of the 45 mg once daily dose): no clinically relevant effect | Effect on QTc interval (QTc interval; 6 times the mean maximum exposure of the 15 mg once daily dose): no clinically relevant effect | Inhibition of IL-6-induced STAT3 and IL-7-induced STAT5 phosphorylation in whole blood [5]: dose- and concentration-dependent inhibition | Time of maximal inhibition after dosing [5]: 1 h | fraction unbound [6]: 0.48 | AUCinf increase with high-fat/high-calorie meal [7]: 29% | Accumulation after multiple once-daily administrations [7]: minimal accumulation | Cmax increase with high-fat/high-calorie meal [7]: 39% | Contribution of renal secretion to elimination [7]: ≤ 25% | Dose proportionality of plasma exposures [7]: proportional to dose | Time to steady-state plasma concentrations [7]: ≤ 4 days | Arterial thrombosis, number of patients [8]: 1 patient | Venous thrombosis, number of patients [8]: 1 patient | solubility (Solubility in water): ≤ 38 mg/mL | Unchanged upadacitinib share of total radioactivity in plasma ([9]; human radiolabeled study): 79% | Active metabolites ([9]; in vivo): No active metabolites | Substrate of CYP1A2, 2B6, 2C8, 2C9, 2C18, 2C19, 2J2, FMO1, FMO3, OATP1B1, OATP1B3 or OCT1 [10]: not a substrate | Plasma exposure, adolescent / pediatric (12 years and older, at least 40 kg) vs adult subjects ([11]; atopic dermatitis studies): similar; also recorded: No meaningful difference | Age as covariate on CL/F and Vc/F ([11]; continuous and discrete (adolescents ≥40 kg vs adults)): not found to be statistically significant | Effect of pH modifying medications (antacids, proton pump inhibitors) on plasma exposures ([11]; in vitro assessments and population PK analyses): not expected to affect | Effect of body weight, gender, race, ethnicity, age on upadacitinib pharmacokinetics / exposure ([11]; in vivo): no relevant effects; also recorded: did not have a clinically meaningful effect | Pharmacokinetics in geriatric patients (>65 years) vs younger adults ([11]; in vivo): No clinically meaningful differences | Effect of CYP2D6 metabolic phenotype (extensive vs poor metabolizers) on upadacitinib CL/F, pharmacokinetics ([11]; population PK analysis): comparability; also recorded: no effect | half-life (clinical): 8 to 14 h | Tmax (clinical; po): 2 to 4 h | Exposure multiple with viable embryos unaffected (male and female rats; 5 mg/kg/day, AUC basis): approximately 1.0 times the MRHD of 30 mg | Exposure multiple with adverse effect on maintenance of pregnancy (male and female rats; 25 mg/kg/day, AUC basis): approximately 13 times the MRHD of 30 mg | Exposure multiple with adverse effect on maintenance of pregnancy (male and female rats; 75 mg/kg/day, AUC basis): ~48 times the MRHD of 30 mg | Exposure multiple without effect on fertility (male and female rats; female rats, 75 mg/kg/day, AUC basis): ~48 times the MRHD of 30 mg | Number of viable embryos (male and female rats; females 5 mg/kg/day mated to males at the same dose): unaffected | Exposure multiple without effect on fertility (male and female rats; male rats, 50 mg/kg/day, AUC basis): approximately 24 times the MRHD of 30 mg | Maintenance of pregnancy (post-implantation losses, viable embryos per litter) (male and female rats; oral 25 and 75 mg/kg/day): adversely affected | Fertility (male and female rats; oral up to 50 mg/kg/day males, 75 mg/kg/day females): no effect on fertility | Genotoxicity, bone marrow micronucleus (rat bone marrow): tested negatively
